The values below come from publication PMC6879241 (Antimicrobial Agents and Chemotherapy, 2019).

pIC50: −log10 of the molar value. ≈ marks a conversion by molar mass, not a printed value. Where “and” joins values, the source holds several entries; their conditions need not be identical. Identical values can stand only once. Like-named read-outs stand apart in the source and are kept apart here.

Data set [1] has as its system Y. pestis. Description: microbe, parasite or virus in culture. It counts as cell-based, Yersinia pestis.
Data set [2] relates to B. anthracis. Description: microbe, parasite or virus in culture. It counts as cell-based, Bacillus anthracis.
The subject of data set [3] is B. mallei. Description: microbe, parasite or virus in culture. Type of data set: cell-based, Burkholderia mallei. The following applies: for MIC50 / MIC90: Burkholderia mallei.
Data set [4] has as its system B. pseudomallei. Nature of the data set: microbe, parasite or virus in culture. Type of data set: cell-based, Burkholderia pseudomallei. Conditions: for MIC50 / MIC90: Burkholderia pseudomallei.
The subject of data set [5] is F. tularensis. Description: microbe, parasite or virus in culture. It counts as cell-based, Francisella tularensis.
Data set [6] relates to B. pseudomallei strain 1026b. Also on record: species or system BALB/c mice. The following applies: mouse, in vivo.
The subject of data set [7] is intracellular B. pseudomallei 1026b. The following applies: cited from earlier work.
The test system of data set [8] is P. aeruginosa ATCC 27853. Nature of the data set: microbe, parasite or virus in culture. Type of data set: cell-based. The following applies: Pseudomonas aeruginosa, ATCC27853.
In data set [9] the test system is E. coli ATCC 25922. Description: microbe, parasite or virus in culture. Type of data set: cell-based. Conditions: Escherichia coli, ATCC25922.
Data set [10] has as its system B. pseudomallei 1026b-based efflux-proficient and -compromised strains. Description: microbe, parasite or virus in culture. Type of data set: cell-based. Conditions: Burkholderia pseudomallei, read-out: MIC under efflux by BpeEF-OprC.
In data set [11] the test system is B. pseudomallei strain 1026b. Also noted: species or system BALB/c mice. The following applies: mouse, in vivo. The source holds these as a separate data set.
The test system of data set [12] is B. pseudomallei strain 1026b. Type of data set: cell-based, Burkholderia pseudomallei.
Data set [13] concerns the target human Topo I (Homo sapiens, UniProt P11387). Nature of the data set: biochemical.
Data set [14] has as its system intracellular B. pseudomallei 1026b. Nature of the data set: microbe, parasite or virus in culture. Type of data set: cell-based, Burkholderia pseudomallei.
Data set [15] concerns the target Quinolone-resistant E. coli gyrase (Escherichia coli, UniProt P0AES4+P0AES6). It counts as biochemical. The following applies: read-out: IC50, E. coli quinolone-resistant gyrase.
The conditions of data set [16]: not told.
For data set [17], the target named is S. aureus Topo IV (Staphylococcus aureus, UniProt P0C1S7+P0C1U9). Description: biochemical.
The target of data set [18] is E. coli DNA gyrase (Escherichia coli, UniProt P0AES4+P0AES6). Description: biochemical.
For data set [19], the target named is E. coli Topo IV (Escherichia coli, UniProt P0AFI2+P20083). Nature of the data set: biochemical.
Chain of E. coli Topo IV (P0AFI2 whole entry): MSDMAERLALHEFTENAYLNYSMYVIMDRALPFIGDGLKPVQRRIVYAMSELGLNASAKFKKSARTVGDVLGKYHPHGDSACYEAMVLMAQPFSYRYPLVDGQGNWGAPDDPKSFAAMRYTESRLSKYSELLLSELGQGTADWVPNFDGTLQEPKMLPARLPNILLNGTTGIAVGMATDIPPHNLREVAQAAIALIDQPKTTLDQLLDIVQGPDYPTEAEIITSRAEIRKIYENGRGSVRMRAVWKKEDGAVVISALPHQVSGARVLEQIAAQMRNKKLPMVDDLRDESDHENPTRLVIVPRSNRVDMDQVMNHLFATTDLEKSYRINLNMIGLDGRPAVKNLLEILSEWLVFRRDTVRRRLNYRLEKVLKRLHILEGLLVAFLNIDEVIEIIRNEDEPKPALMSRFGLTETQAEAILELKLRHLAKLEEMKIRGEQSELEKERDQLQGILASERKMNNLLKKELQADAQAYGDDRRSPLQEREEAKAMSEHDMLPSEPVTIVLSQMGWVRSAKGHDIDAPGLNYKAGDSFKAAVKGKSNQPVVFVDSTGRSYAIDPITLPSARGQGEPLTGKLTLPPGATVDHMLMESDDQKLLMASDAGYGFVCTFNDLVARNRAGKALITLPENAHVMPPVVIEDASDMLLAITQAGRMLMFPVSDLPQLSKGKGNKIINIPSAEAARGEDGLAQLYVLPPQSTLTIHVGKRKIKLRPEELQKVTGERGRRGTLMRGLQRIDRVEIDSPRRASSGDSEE
Chain of E. coli Topo IV (P20083 whole entry): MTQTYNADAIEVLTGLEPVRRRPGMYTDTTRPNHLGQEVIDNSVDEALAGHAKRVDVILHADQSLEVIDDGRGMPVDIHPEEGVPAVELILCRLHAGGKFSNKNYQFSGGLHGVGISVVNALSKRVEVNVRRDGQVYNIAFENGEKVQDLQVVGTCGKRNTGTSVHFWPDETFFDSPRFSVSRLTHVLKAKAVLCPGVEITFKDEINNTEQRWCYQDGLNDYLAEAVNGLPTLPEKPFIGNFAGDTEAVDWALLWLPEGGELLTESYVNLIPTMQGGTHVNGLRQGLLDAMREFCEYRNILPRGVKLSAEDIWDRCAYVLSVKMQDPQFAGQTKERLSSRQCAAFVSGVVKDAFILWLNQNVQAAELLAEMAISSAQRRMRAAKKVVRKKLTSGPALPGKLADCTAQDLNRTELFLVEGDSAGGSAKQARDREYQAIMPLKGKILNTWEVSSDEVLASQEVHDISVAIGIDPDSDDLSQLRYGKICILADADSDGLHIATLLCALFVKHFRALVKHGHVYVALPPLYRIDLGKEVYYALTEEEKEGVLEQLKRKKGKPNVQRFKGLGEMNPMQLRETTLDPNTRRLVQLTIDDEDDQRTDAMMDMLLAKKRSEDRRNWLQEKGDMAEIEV
Data set [20] addresses S. aureus DNA gyrase (Staphylococcus aureus, UniProt P0A0K8+P20831). Nature of the data set: biochemical.

Chain of human Topo I (P11387 whole entry): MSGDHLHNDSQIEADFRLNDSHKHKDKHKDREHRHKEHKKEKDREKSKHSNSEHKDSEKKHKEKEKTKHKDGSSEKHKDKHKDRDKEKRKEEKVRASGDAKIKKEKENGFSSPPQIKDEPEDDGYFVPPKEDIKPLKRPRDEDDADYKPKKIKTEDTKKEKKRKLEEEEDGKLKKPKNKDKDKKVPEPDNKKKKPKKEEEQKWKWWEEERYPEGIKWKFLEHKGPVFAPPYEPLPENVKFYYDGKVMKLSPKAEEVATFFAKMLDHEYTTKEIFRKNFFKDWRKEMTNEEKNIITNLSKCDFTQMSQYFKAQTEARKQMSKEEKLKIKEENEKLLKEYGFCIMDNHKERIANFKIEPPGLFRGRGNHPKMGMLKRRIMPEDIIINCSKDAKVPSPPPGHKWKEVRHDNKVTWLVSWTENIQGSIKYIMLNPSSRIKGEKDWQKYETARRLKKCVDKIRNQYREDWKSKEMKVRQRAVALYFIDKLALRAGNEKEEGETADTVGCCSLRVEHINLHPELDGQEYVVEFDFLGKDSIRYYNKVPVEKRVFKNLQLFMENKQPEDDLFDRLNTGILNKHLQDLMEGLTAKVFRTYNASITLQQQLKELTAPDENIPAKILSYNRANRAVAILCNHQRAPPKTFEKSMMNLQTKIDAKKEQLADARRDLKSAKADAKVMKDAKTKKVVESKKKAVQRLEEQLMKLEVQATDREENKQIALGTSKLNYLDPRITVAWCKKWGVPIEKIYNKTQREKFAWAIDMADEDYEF

Turning to `N#Cc1c(N2C[C@@H]3NCCO[C@H]3C2)c(F)cc2c(=O)c(C(=O)O)cn(C3CC3)c12` [Finafloxacin, finafloxacin, reference compound], the “MIC 50%” value in data set [1] is 0.06 µg/mL (≈ 0.151 µM); in data set [2], 0.06 µg/mL (≈ 0.151 µM); in [3], 0.25 µg/mL (≈ 0.628 µM); in data set [4], 4 µg/mL (≈ 10 µM); in data set [5], at most 4 ng/mL. Moreover, the “MIC 90%” value in [1] is 0.12 µg/mL (≈ 0.301 µM); in data set [2], 0.12 µg/mL (≈ 0.301 µM); in data set [3] it was 2 µg/mL (≈ 5.02 µM); in data set [4], 8 µg/mL (≈ 20.1 µM); in data set [5], 8 ng/mL (≈ 0.0201 µM). Also, the MIC range in data set [1] was 15 to 250 ng/mL; in [2], 0.03 to 0.12 µg/mL; in data set [3] it was 0.015 to 2 µg/mL; in data set [5] it was at most 4 to 120 ng/mL.
`CC(C)(O/N=C(\C(=O)N[C@@H]1C(=O)N2C(C(=O)[O-])=C(C[n+]3ccccc3)CS[C@H]12)c1csc(N)n1)C(=O)O` [Ceftazidime, ceftazidime] yielded a survival in [6] of 100%. For the same molecule, the MIC50 in data set [4] was 1 µg/mL (≈ 1.83 µM). For the same molecule, in data set [4], the MIC90 came to 64 µg/mL (≈ 117 µM). In addition, the “effect on intracellular survival of B. pseudomallei in macrophages” value in data set [7] was “no effect”. In addition, the MIC worked out at 4 µg/mL (≈ 7.32 µM) in [8] and 0.25 µg/mL (≈ 0.457 µM) in [9].
With `Cc1c(-c2cc(F)c(N)cc2F)ccn2c(=O)c(C(=O)O)cc(C3CC3)c12` [GC-072], the MIC is 0.5 to 1 µg/mL (≈ 1.35 to 2.7 µM) in data set [10]; 0.25 µg/mL (≈ 0.675 µM) in data set [14] (Burkholderia pseudomallei, read-out: MIC for B. pseudomallei strain 1026b measured for the intracellular experiment); 1 µg/mL (≈ 2.7 µM) in [8]; at most 0.004 µg/mL in [9]. The MIC range in [1] was 2 to 30 ng/mL; in data set [2], at most 0.0005 to 0.004 µg/mL; in data set [3], at most 0.004 to 0.5 µg/mL; in [4], at most 0.008 to 1 µg/mL; in data set [5] it was at most 0.5 to 15 ng/mL. The MIC50 was 8 ng/mL (≈ 0.0216 µM) in data set [1] (Yersinia pestis); 1 ng/mL (≈ 0.0027 µM) in data set [2] (Bacillus anthracis); 0.015 µg/mL (≈ 0.0405 µM) in [3]; 0.12 µg/mL (≈ 0.324 µM) in data set [4]; at most 0.5 ng/mL in [5] (Francisella tularensis). Moreover, the MIC90 in data set [1] (Yersinia pestis) is 0.015 µg/mL (≈ 0.0405 µM); in data set [2] (Bacillus anthracis), 2 ng/mL (≈ 0.0054 µM); in data set [3], 0.12 µg/mL (≈ 0.324 µM); in data set [4] it was 0.25 µg/mL (≈ 0.675 µM); in [5] (Francisella tularensis), at most 0.5 ng/mL. For the same molecule, the “animals that survived to the end of the experiment” value in [11] is reported as “four”. Also, the median survival time in [11] is 4.5 days and 4.75 days and 5.63 days. Moreover, in data set [11], the “overall survival rate of the treated groups” value was 87%. The survival in data set [11] is 90% and 80%. Besides, the “MIC for B. pseudomallei 1026b (time-kill study)” value in data set [12] came out at 0.125 µg/mL. Also, in data set [12], the “share of the full killing effect observed within 5 h” value was “more than 75%”. Also, in data set [4], the “share of strains with MICs higher than 0.5 μg/ml” value was 7%. The pIC50 (in general, the IC50 on a negative log10 scale, so that one unit is a factor of ten) is under 4.00 in [13]; 5.82 to 5.89 in data set [15]; 4.52 to 5.40 in data set [17]; 5.82 to 6.74 in data set [18]; 5.07 to 5.37 in data set [19]; 5.70 in data set [20]. In addition, the “viable intracellular bacteria 24 h after initiation of treatment” value in data set [14] was “no viable bacteria detectable”. Also, in [16], the permeability result was “good”.
In data set [3], `CC[C@H]1OC(=O)[C@H](C)[C@@H](O[C@H]2C[C@@](C)(OC)[C@@H](O)[C@H](C)O2)[C@H](C)[C@@H](O[C@@H]2O[C@H](C)C[C@H](N(C)C)[C@H]2O)[C@](C)(O)C[C@@H](C)CN(C)[C@H](C)[C@@H](O)[C@]1(C)O` [Azithromycin] showed an MIC range of 0.12 to 1 µg/mL, an MIC50 of 0.5 µg/mL (≈ 0.668 µM) and an MIC90 of 0.5 µg/mL (≈ 0.668 µM).
For `O=C(O)c1cn(C2CC2)c2cc(N3CCNCC3)c(F)cc2c1=O` [Ciprofloxacin, ciprofloxacin], the pIC50 in data set [13] is under 4.00. Also, the MIC was 0.25 µg/mL (≈ 0.754 µM) in data set [8] and at most 0.008 µg/mL in data set [9].
In data set [4], `C[C@H]1c2cccc(O)c2C(=O)C2=C(O)[C@]3(O)C(=O)C(C(N)=O)=C(O)[C@@H](N(C)C)[C@@H]3[C@@H](O)[C@@H]21` [Doxycycline, doxycycline] came in with an MIC range of at most 0.06 to 32 µg/mL, an MIC50 of 0.5 µg/mL (≈ 1.13 µM) and an MIC90 of 4 µg/mL (≈ 9 µM). In [8], the MIC is over 16 µg/mL. Further, the MIC in [9] stood at 1 µg/mL (≈ 2.25 µM).
In data set [4], `C[C@@H](O)[C@H]1C(=O)N2C(C(=O)O)=C(S[C@@H]3CN[C@H](C(=O)N(C)C)C3)[C@H](C)[C@H]12` [Meropenem, meropenem] returned an MIC range of at most 0.06 to 4 µg/mL, an MIC50 of 0.5 µg/mL (≈ 1.3 µM) and an MIC90 of 1 µg/mL (≈ 2.61 µM).
